Data published in PMC6943527, “Are the Hydantoin-1,3,5-triazine 5-HT6R Ligands a Hope to a Find New Procognitive and Anti-Obesity Drug? Considerations Based on Primary In Vivo Assays and ADME-Tox Profile In Vitro” (Molecules, 2019).

Assays:
CYP2D6 = target: T1, CYP2D6 (Homo sapiens, UniProt P10635); test: CYP2D6 P450-Glo drug-drug interaction assay; assay type: in vitro ADME; settings: summary in comparison to SUVN-502
T1 construct: purchased Promega (Madison, WI, USA)
Protocol: The influence of triazine derivatives on two the most involved in drug metabolism CYP (cytochrome P450) isoforms CYP3A4 and CYP2D6 was also investigated.
The study was performed using the CYP3A4 P450-Glo^TM and CYP2D6 P450-Glo^TM commercial tests provided by Promega (Madison, WI, USA). The influence of compounds on CYPs activity was tested in white polystyrene, flat-bottom Nunc^TM MicroWell^TM 96-well microplates (Thermo Scientific, Waltham, MA USA), and the bioluminescence signal was measured with a microplate reader (EnSpire) in luminescence mode, as described previously. KMP-10 and DJ-18 were tested in triplicate in the range of 0.01–25 µM for both isoforms’ P450 cytochrome. KE and QD were used as the reference compounds for CYP3A4 and CYP2D6, respectively.

hepatoma HepG2 cell line = test: Hepatotoxicity assay, HepG2 cell viability; assay type: cell-based; settings: HepG2, 0.1-100 µM, 72 h
Protocol: The cell-based assays were used to investigate safety of the 5-HT6R ligands. […] During the same study, no effect for KMP-10 was observed. Additional safety tests with the hepatoma HepG2 cell line were performed here to estimate the compounds’ hepatotoxicity. A slight antiproliferative effect was observed only for DJ-18 at 100 µM, where the cell viability was decreased to up to ~83% of the control (Figure 9a).
Hepatotoxicity was estimated using the hepatoma HepG2 (ATCC® HB-8065^TM) cell line according to previously described protocols. The CellTiter 96® AQueous Non-Radioactive Cell Proliferation Assay was obtained from Promega (Madison, WI, USA). The compounds were investigated in quadruplicate at four concentrations (0.1–100 µM) for 72h. The antiproliferative drug DX was used as a positive control at a dose of 1 µM.

[1] = Food and water intake, rats fed standard diet only; assay type: in vivo, male Wistar rats; settings: 5 mg/kg b.w. i.p., vs control group
Protocol: The experiments were carried out on male Wistar rats. Their initial body weight was 210–230 g. The animals were housed in pairs in plastic cages in constant temperature facilities exposed to a light–dark cycle; water and food were available ad libitum. The control and experimental groups consisted of eight animals each. All experiments were conducted according to the guidelines of the Animal Use and Care Committee of the Jagiellonian University and were approved for realization (2013 and 2015, Poland; Permissions No 136/2013 and 258/2015).
The standard diet contained 100 g of feed—280 kcal.
Male Wistar rats (190–220 g) were housed in pair. The control group (standard diet + vehicle) received vehicle (1% Tween 80, i.p.), while the test group (standard diet + KMP-10 5 mg) was intraperitoneally injected with KMP-10 at the dose 5 mg/kg b.w./day dissolved in 1% Tween 80. The intakes of food and water were evaluated daily.

5-HT6 = target: 5-HT6; set-up: method as in PMID 30282913; settings: radioligand binding, average of at least two independent experiments; read-out: Ki 5-HT6 [3H]-LSD; cited from earlier work
D2 = target: D2; set-up: method as in PMID 30282913; settings: radioligand binding, average of at least two independent experiments; read-out: Ki D2 [3H]-Raclopride; cited from earlier work
5-HT7 = target: 5-HT7; set-up: method as in PMID 30282913; settings: radioligand binding, average of at least two independent experiments; read-out: Ki 5-HT7 [3H]-5-CT; cited from earlier work
[2] = set-up: method as in PMID 30282913; settings: overeating model, vs control group; cited from earlier work
[3] = set-up: method as in PMID 30530073; settings: QikProp, Schrödinger Suite; cited from earlier work
[4] = set-up: method as in PMID 30282913; settings: "conditional" anxiety-like assay; cited from earlier work

T1 sequence (P10635 whole entry): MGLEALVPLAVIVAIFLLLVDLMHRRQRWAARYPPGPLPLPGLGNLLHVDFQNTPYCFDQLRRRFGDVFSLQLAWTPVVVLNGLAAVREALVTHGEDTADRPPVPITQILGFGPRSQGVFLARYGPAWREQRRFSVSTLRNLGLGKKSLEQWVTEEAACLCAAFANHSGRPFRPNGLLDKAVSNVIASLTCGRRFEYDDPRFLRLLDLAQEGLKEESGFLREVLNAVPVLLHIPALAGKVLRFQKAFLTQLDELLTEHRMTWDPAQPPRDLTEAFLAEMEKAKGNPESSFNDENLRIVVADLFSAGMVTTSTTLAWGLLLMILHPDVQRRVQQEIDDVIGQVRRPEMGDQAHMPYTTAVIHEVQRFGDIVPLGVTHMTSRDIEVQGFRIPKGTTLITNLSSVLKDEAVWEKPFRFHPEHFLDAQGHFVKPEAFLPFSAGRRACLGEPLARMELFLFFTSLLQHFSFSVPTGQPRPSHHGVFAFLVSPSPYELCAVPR

CN1CCN(c2nc(N)nc(CN3C(=O)NC(C)(c4ccc5ccccc5c4)C3=O)n2)CC1 (stereo not shown) [KMP-10, 3-((4-amino-6-(4-methylpiperazin-1-yl)-1,3,5-triazin-2-yl)methyl)-5-methyl-5-(naphthalen-2-yl)imidazolidine-2,4-dione]
Influence on CYP2D6 (CYP2D6): almost no influence
Hepatotoxic character (hepatoma HepG2 cell line): did not show any hepatotoxic character
Amount of calories consumed [1]: significantly reduced
Water intake [1]: significantly lower
Ki (5-HT6): 87 nM
Ki (D2): 4.25 µM
Ki (5-HT7): 514 nM
Increase of body mass [2]: significantly lower increase
QPlogBB [3]: −0.92
Anxiolytic-like effects in Vogel-conflict test [4]: confirmed
